Measurements taken from US9487553B2, “Boranophosphate analogues of cyclic nucleotides” (BIOLOG LIFE SCIENCE INSTITUTE FORSCHUNGSLABOR UND …, priority 2011, dated 2016).

What was measured:
[1] = molecular target: protein kinase A type II alpha holoenzyme (Homo sapiens, UniProt P13861); assay: Photometric (Cook) assay with protein kinase A type II alpha holoenzyme; type: biochemical; details: for effect on protein kinase A type II alpha holoenzyme: photometric assay
From the text: In another similar experiment the properties of Rp- and Sp-8-Br-cAMPB towards protein kinase A type II a were investigated in the photometric assay (Cook, P. F., Neville, M. E., Jr., Vrana, K. E., Hartl, F. T. and Roskoski, R., Jr., Biochemistry 21, 5794-5799 (1982))

protein kinase G I α = molecular target: T1, protein kinase G I α (Homo sapiens, UniProt Q13976); assay: Protein kinase G I alpha activation, phosphotransferyl assay; type: biochemical; details: 10 nM, 100 nM and 1 μM
T1 sequence (Q13976 1-671): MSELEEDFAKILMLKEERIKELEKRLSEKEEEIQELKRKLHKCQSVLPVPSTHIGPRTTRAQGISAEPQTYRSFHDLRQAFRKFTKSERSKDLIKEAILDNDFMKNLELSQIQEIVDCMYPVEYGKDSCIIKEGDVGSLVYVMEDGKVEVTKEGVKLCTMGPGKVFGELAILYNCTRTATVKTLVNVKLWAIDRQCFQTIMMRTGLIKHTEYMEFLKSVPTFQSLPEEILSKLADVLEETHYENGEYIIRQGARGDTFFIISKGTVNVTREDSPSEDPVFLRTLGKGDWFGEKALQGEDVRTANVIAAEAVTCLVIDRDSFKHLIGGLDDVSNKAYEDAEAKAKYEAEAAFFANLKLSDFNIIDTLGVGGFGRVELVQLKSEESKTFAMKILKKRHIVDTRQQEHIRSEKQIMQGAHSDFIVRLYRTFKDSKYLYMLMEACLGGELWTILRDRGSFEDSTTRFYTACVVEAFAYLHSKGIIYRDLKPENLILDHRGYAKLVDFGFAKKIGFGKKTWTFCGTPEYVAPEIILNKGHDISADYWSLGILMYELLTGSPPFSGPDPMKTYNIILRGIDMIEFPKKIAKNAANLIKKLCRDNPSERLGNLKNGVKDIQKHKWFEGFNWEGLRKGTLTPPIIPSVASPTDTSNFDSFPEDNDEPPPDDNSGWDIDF
From the text: Next, the activity profile of some cyclic boranophosphates disclosed in this invention has also been investigated on protein kinase G I α (FIGS. 8 and 9). Potential activatory potential towards the enzyme has been determined by a standard phosphotransferyl assay protocol according to Dostmann et al. (Dostmann, W. R.; Nickl, C.; Thiel, S.; Tsigelny, I.; Frank, R.; and Tegge, W. J., Pharmacol. Ther., 82, 373-387 (1999). FIG. 8 depicts the activity (μmol×min^−1×mg^−1) overview of six different cyclic boranophosphate analogues with protein kinase G type I at 10 nM, 100 nM and 1 μM. BLG-9108: […]; BLG-9110: Sp-8-Br-cAMPB; BLG-9111: Rp-8-Br-cAMPB; BLG-9112: Sp-8-Br-cGMPB; BLG-9113: Rp-8-Br-cGMPB; control: cyclic GMP.

bovine CNGA2 channels = molecular target: T2, bovine CNGA2 channels (Bos taurus, UniProt Q03041); assay: Patch-clamp of inside-out oocyte membrane patches with olfactory CNGA2 channels; type: cell-based; details: for current, % of its maximal value: 500 μM compound, maximal value at 500 μM cAMP, n=3; for inhibition of channel activation by cAMP: applied in the presence of cAMP; for current amplitude, % of the amplitude observed in the absence of the compound: 50 μM cAMP, 50 μM compound, n=9
T2 construct: expressed in transfected cells; host or cells: Xenopus laevis oocytes (cRNA injection; inside-out membrane patches)
T2 sequence (Q03041 1-663): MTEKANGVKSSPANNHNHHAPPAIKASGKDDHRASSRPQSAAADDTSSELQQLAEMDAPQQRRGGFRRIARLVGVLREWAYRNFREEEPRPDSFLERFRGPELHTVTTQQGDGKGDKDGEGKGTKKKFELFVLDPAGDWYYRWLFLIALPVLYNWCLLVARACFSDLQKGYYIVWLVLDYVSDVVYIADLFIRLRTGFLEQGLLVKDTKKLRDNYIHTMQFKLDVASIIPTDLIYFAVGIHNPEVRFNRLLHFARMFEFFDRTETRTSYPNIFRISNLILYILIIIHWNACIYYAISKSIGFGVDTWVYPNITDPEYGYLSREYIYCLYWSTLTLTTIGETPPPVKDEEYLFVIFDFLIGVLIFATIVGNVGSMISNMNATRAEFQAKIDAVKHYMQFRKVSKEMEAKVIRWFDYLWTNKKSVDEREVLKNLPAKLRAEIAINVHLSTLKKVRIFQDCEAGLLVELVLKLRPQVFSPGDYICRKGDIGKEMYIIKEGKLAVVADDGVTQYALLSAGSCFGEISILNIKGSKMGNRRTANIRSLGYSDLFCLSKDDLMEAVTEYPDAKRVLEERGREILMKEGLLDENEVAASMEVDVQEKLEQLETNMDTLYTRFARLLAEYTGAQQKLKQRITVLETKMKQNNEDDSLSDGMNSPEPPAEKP
From the text: Next, the effects of cyclic nucleotide boranophosphates, disclosed in this invention, on olfactory cyclic nucleotide-gated ion channels in clamps of oocyte cell membrane patches were investigated.
For the experiments, oocytes were obtained and prepared as described previously (Biskup, C. et al., Nature 446, 440-443 (2007)). In brief, oocytes were obtained by partial ovariectomy from adult females of Xenopus laevis anaesthesized with 0.3% 3-aminobenzoic acid ethyl ester (Sigma). The oocytes were treated for 60-90 min with 1.2 mg/ml collagenase (Type I, Sigma) and separated manually. 40-70 nl of a solution containing cRNA encoding bovine CNGA2 channels (accession No. X55010) was injected, and the oocytes were incubated at 18° C. in Barth medium until they were used for the experiments within 3-6 days after injection. Immediately prior to the experiments the vitelline membrane of the oocytes was removed.
Currents were recorded in inside-out patches with the patch-clamp technique. The patch pipettes were pulled from quartz tubing (outer diameter 1.0 mm, inner diameter 0.7 mm) using a laser puller (P-2000, Sutter Instrument, Novato, Calif.). The pipette resistance was 0.8-2.5 MΩ. Recording was performed with an Axopatch 200B amplifier (Molecular Devices, Sunnyvale, Calif.). All experiments were performed with the same recording solution in the bath and the pipette containing (in mM) 150 KCl, 1 EGTA, 5 HEPES. pH was adjusted to 7.4 with KOH.
Measurements were controlled and data were collected with the ISO3 setup (MFK, Niedernhausen, Germany). The sampling rate was 5 kHz (filter 2 kHz). To test for possible background channel activity, each excised patch was first exposed to a solution containing no cyclic nucleotides.
FIGS. 15 A-C depict the agonistic activity of Rp-8-Br-cAMPB on CNGA2 channels. Currents were recorded in a patch containing CNGA2 channels. The patch membrane was clamped subsequently from 0 mV to −50 mV, +50 mV and back to 0 mV. […] (C) Current measured in the presence of 500 μM Rp-8-Br-cAMPB.
FIGS. 16 A-F depict the antagonistic activity of Sp-8-Br-cAMPB on CNGA2 channels. Currents were recorded in a patch containing CNGA2 channels. The patch membrane was clamped subsequently from 0 mV to −50 mV, +50 mV and back to 0 mV.

Sequence of protein kinase A type II alpha holoenzyme (P13861 whole entry): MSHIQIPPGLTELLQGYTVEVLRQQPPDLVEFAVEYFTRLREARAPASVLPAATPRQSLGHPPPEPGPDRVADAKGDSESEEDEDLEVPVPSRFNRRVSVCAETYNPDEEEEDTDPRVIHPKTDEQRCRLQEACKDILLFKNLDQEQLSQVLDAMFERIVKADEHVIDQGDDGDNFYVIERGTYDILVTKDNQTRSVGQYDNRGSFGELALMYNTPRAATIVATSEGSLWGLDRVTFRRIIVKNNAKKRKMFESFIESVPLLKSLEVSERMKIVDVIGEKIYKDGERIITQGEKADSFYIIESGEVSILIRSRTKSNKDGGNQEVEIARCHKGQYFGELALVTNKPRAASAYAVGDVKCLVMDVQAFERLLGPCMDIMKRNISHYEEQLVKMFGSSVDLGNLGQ

Substance: 8-Bromoadenosine-3′,5′-cyclic boranophosphate, Rp-isomer [Rp-8-Br-cAMPB]
- effect on protein kinase A type II alpha holoenzyme [1]: even higher activation potential
- modulation of protein kinase G (protein kinase G I α): as potent or even better as guanine related compounds
- current, % of its maximal value (bovine CNGA2 channels; +50 mV): 14±4%
- current, % of its maximal value (bovine CNGA2 channels; −50 mV, mean±SEM): 7±1%
- inhibition of channel activation by cAMP (bovine CNGA2 channels): does not inhibit channel activation by cAMP

Substance: 8-Bromoadenosine-3′,5′-cyclic boranophosphate, Sp-isomer [Sp-8-Br-cAMPB]
- preference for protein kinase A type I over type II, factor ([1]; antagonist): 14
- effect on protein kinase A type II alpha holoenzyme [1]: only moderately antagonistic
- modulation of protein kinase G (protein kinase G I α): as potent or even better as guanine related compounds
- current amplitude, % of the amplitude observed in the absence of the compound (bovine CNGA2 channels; +50 mV): 48±11%
- current amplitude, % of the amplitude observed in the absence of the compound (bovine CNGA2 channels; −50 mV): 34±9%
- inhibition of channel activation by cAMP (bovine CNGA2 channels): competitive antagonist
- intrinsic activity on CNGA2 channels (bovine CNGA2 channels; up to 100 μM, absence of cAMP): did not show any intrinsic activity
